≈ marks a conversion by molar mass, not a printed value. Where two headings read alike, the source gives them in different places. Values belong to the molecule of their own block, whether it stands above or below them.
Legend:
LYSA solubility study = type: physicochemical; settings: for LYSA of Active Forms: 0.05 M phosphate buffer pH 6.5; for solubility thermodynamic: 0.05 M phosphate buffer, pH 6.5, aqueous buffer, thermodynamic from solid
Description: LYSA study is used to determine the aqueous solubility of tested compounds. Samples were prepared in duplicate from 10 mM DMSO stock solution. After evaporation of DMSO with a centrifugal vacuum evaporator, the compounds were dissolved in 0.05 M phosphate buffer (pH 6.5), stirred for one hour and shaken for two hours. After one night, the solutions were filtered using a microtiter filter plate. Then the filtrate and its 1/10 dilution were analyzed by HPLC-UV. […] The results were in μg/mL. In case the percentage of sample measured in solution after evaporation divided by the calculated maximum of sample amount was bigger than 80%, the solubility was reported as bigger than this value.

[1] = tested on: cell lines originating from hepatocellular carcinoma and cholangiocarcinoma; experiment: Direct treatment of tumor cell lines, cell counts by nuclei imaging; type: cell-based; settings: 27 μM down to 270 pM, 72, 120 and 148 hours, relative to DMSO control
Description: Cell lines derived from hepatocellular carcinoma and cholangiocarcinoma (EGI1 and OZ) were maintained and tested in the following media: Huh7 and EGI1 were cultured in DMEM 4.5 g/L glucose (Gibco, Cat #31966-021), 10% FCS (GIBCO, Cat #10500-064 Lot 07G3690K), 2 mM L-glutamine (Thermo Fischer, Cat #25030081), 1 mM sodium pyruvate (GIBCO Cat #11360-039). Hep3B and HepG2 were cultivated in Eagles MEM+Earle's BSS (PAN, Cat # P04-08510), 10% FCS, 2 mM L-glutamine, 0.1 mM NEAA (PAN Cat # P08-32100) and 1 mM sodium pyruvate. JHH1, JHH5, JHH6 and OZ were cultivated in Williams'E (PAN Cat # P04-29050), 10% FCS and 2 mM L-glutamine. JHH2 was cultivated using Williams'E, 10% FCS and 2 mM L-glutamine. HLE was cultivated in DMEM 4.5 g/L glucose, 10% FCS and 2 mM L-glutamine. HLF was cultivated in DMEM 4.5 g/L glucose, 5% FCS, 0.1 mM NEAA and 2 mM L-glutamine. JHH4 was cultivated in Eagles MEM+Earle's BSS, 10% FCS and 2 mM L-glutamine. SkHep1 was cultivated in Eagles MEM+Earle's BSS, 10% FCS, 2 mM L-glutamine, 0.1 mM NEAA and 1 mM sodium pyruvate. SNU449 was cultivated using RPMI 1640 (PAN Cat # P04-18047) 10% FCS and 2 mM L-glutamine. […]
Tumor cell counts were determined using Perkin Elmer Operetta Imaging System and Harmony Software by counting nuclei stained for 20 minutes in full media using Hoechst33342 dye (2 μg/ml, Sigma Cat # B2261). […]

human TLR7 = molecular target: T1, human TLR7 (Homo sapiens, UniProt Q9NYK1); experiment: HEK293-Blue-hTLR-7 cells assay (SEAP reporter); type: cell-based; settings: for EC50: SEAP reporter, 20 hrs
T1 sequence (Q9NYK1 27-1049): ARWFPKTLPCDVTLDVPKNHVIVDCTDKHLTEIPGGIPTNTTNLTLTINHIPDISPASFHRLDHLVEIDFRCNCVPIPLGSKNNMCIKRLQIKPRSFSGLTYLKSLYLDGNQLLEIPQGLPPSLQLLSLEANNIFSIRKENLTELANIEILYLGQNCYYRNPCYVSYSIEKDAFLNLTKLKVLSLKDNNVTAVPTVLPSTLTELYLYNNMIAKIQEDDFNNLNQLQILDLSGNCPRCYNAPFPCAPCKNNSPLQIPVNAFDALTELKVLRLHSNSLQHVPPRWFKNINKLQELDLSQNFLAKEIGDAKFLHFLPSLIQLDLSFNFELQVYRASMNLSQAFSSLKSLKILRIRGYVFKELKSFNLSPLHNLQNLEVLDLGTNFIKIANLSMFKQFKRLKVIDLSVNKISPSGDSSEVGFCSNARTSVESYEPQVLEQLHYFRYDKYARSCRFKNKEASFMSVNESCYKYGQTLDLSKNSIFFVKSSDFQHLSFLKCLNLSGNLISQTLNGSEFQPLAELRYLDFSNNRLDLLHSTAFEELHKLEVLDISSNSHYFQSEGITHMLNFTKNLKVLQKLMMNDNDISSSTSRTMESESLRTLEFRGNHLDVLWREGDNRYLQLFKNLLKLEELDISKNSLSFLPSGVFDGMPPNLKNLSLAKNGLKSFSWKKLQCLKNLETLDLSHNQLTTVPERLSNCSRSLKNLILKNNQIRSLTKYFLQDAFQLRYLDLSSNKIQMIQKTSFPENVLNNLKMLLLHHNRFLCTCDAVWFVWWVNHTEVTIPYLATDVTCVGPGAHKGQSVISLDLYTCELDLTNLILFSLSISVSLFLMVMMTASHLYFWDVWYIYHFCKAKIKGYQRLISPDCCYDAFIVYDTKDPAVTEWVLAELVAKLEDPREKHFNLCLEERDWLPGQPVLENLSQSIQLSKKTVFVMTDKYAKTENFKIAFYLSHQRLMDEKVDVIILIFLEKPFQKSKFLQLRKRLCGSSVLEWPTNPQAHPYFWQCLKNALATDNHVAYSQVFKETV
Text: HEK293-Blue-hTLR-7 cells assay: A stable HEK293-Blue-hTLR-7 cell line was purchased from InvivoGen (Cat. #: hkb-htlr7, San Diego, Calif., USA). These cells were designed for studying the stimulation of human TLR7 by monitoring the activation of NF-κB. A SEAP (secreted embryonic alkaline phosphatase) reporter gene was placed under the control of the IFN-β minimal promoter fused to five NF-κB and AP-1-binding sites. The SEAP was induced by activating NF-κB and AP-1 via stimulating HEK-Blue hTLR7 cells with TLR7 ligands. Therefore the reporter expression was regulated by the NF-κB promoter upon stimulation of human TLR7 for 20 hrs. The cell culture supernatant SEAP reporter activity was determined using QUANTI-Blue™ kit (Cat. #: rep-qbl, Invivogen, San Diego, Ca, USA) at a wavelength of 640 nm, a detection medium that turns purple or blue in the presence of alkaline phosphatase. […] Then 20 μL of the supernatant from each well was incubated with 180 μL Quanti-blue substrate solution at 37° C. for 2 hrs and the absorbance was read at 620-655 nm using a spectrophotometer. The signalling pathway that TLR7 activation leads to downstream NF-κB activation has been widely accepted, and therefore similar reporter assay was also widely used for evaluating TLR7 agonist (Tsuneyasu Kaisho and Takashi Tanaka, Trends in Immunology, Volume 29, Issue 7, July 2008, […]; Hiroaki Hemmi et al, Nature Immunology 3, 196-200 (2002)). The Compounds and Examples of the present invention were tested in HEK293-hTLR-7 assay for their TLR7 agonism activity as described herein and results are listed in Table 1. […] The calculated ratio of EC50(prodrug)/EC50(active form) were within the range from 32 to about 7600.

[2] = tested on: iAST mouse model of hepatocellular carcinoma; experiment: iAST mouse model of hepatocellular carcinoma, tumor burden; settings: iAST mice, Sorafenib 90 mg/kg daily
Description: Per group n=10 were analyzed by One-way ANOVA and Tukey correction shown as individual dots with means±SEM using GraphPad Prism software version 6.

[3] = tested on: immune cell infiltrate in iAST tumor; experiment: Leukocyte infiltrate of iAST tumors by flow cytometry; type: in vivo, mouse; settings: day 12 after treatment start
Description: Tumors from iAST mice were treated as described in FIG. 1. […] For flow cytometry, tumors were excised and single cell suspensions obtained by mechanical processing and enzymatic digestion (DNAse 0.01%, Collagenase IV 1 mg/ml). Staining procedures started with Fc receptor blocking using 2.4G2 antibody clone (1:200 dilution, BD Bioscience), and the following antibodies (clones) were used to analyzed leukocyte infiltrate: CD45-FITC (30-F11, BioLegend) and CD11b-BUV737 (M1/70, BD Bioscience). Samples were acquired using a LSR Fortessa machine (BD Bioscience) and analyzed by FlowJo version 10 (Treestar).

[4] = corresponding active form, read-out: HEK293-hTLR-7 EC50 (Active form)

SMILES: CC[S@@](=N)(=O)c1nc(N)c2[nH]c(=O)n(Cc3ccc(Cl)cc3)c2n1 (single isomer, unassigned) [Compound 41c-B, 6-amino-9-[(4-chlorophenyl)methyl]-2-(ethylsulfonimidoyl)-7H-purin-8-one]
- tumor cell proliferation upon direct treatment [1]: None of the cell lines tested showed a significant increase in proliferation
- tumor cell proliferation upon direct treatment ([1]; listed as compound 41c-B): does not induce enhanced tumor cell proliferation

SMILES: CC[S@@](=N)(=O)c1nc(N)c2[nH]c(=O)n(Cc3ccc(Br)cc3)c2n1 (single isomer, unassigned) [Compound 47e-A, 6-Amino-9-[(4-bromophenyl)methyl]-2-(ethylsulfonimidoyl)-7H-purin-8-one]
- EC50 (human TLR7; [4]): 21 nM

SMILES: CC[S@@](=N)(=O)c1nc(N)c2[nH]c(=O)n(Cc3ccc(Br)cc3)c2n1 (single isomer, unassigned) [Compound 47e-B, 6-Amino-9-[(4-bromophenyl)methyl]-2-(ethylsulfonimidoyl)-7H-purin-8-one]
- EC50 (human TLR7; [4]): 25 nM

SMILES: CCCN(C)C(=O)n1c(=O)n(Cc2ccc(Br)cc2)c2nc([S@](=N)(=O)CC)nc(N)c21 (single isomer, unassigned) [Example 47-A]
- EC50 (human TLR7; prodrug, read-out: HEK293-hTLR-7 EC50 (Prodrug)): 10900 nM
- solubility thermodynamic (LYSA solubility study; read-out: LYSA of Prodrugs): 154 µg/mL (≈ 302 µM)

SMILES: CCC[S@](=N)(=O)c1nc(N)c2c(n1)n(Cc1ccc(C)cc1)c(=O)n2C(=O)N(C)CCOC [Example 38-A, 6-Amino-N-(2-methoxyethyl)-N-methyl-8-oxo-2-[S(S)-propylsulfonimidoyl]-9-(p-tolylmethyl)purine-7-carboxamide]
- Ratio (EC50(prodrug)/EC50(active form)) (human TLR7): 1378.9

SMILES: CNC(=O)c1cc(Oc2ccc(NC(=O)Nc3ccc(Cl)c(C(F)(F)F)c3)cc2)ccn1 [Sorafenib, 4-{4-[3-(4-Chlor-3-trifluormethylphenyl)ureido]phenoxy}pyridin-2-carbonsäuremethylamid]
- efficacy in monotherapy (total liver and tumor weights) [2]: highly effective
- Examination of the liver for superficial tumor nodules (tumor nodule free) ([2]; day 12 after treatment start, 41-A 10 mg/kg once a week oral): 0/10 tumor nodule free
- overall lymphoid and myeloid composition of the tumors [3]: changes were clearly driven by Sorafenib

Continued, values first:

- LYSA of Active Forms (LYSA solubility study): 56 µg/mL
SMILES: CCCS(=N)(=O)c1nc(N)c2[nH]c(=O)n(Cc3ccccc3)c2n1 (single isomer, unassigned) [Compound 1e-A, 6-amino-9-benzyl-2-(propylsulfonimidoyl)-7H-purin-8-one]

- solubility thermodynamic (LYSA solubility study; read-out: LYSA of Active Forms): 50 µg/mL (≈ 144 µM)
SMILES: CCCS(=N)(=O)c1nc(N)c2[nH]c(=O)n(Cc3ccccc3)c2n1 (single isomer, unassigned) [Compound 1e-B, 6-amino-9-benzyl-2-(propylsulfonimidoyl)-7H-purin-8-one]

- solubility thermodynamic (LYSA solubility study; read-out: LYSA of Active Forms): 6 µg/mL (≈ 16.6 µM)
SMILES: CCCS(=N)(=O)c1nc(N)c2[nH]c(=O)n(Cc3ccc(C)cc3)c2n1 (single isomer, unassigned) [Compound 36g-A, 6-Amino-2-(propylsulfonimidoyl)-9-(p-tolylmethyl)-7H-purin-8-one]

- LYSA of Active Forms (LYSA solubility study): 11 µg/mL
SMILES: CCCS(=N)(=O)c1nc(N)c2[nH]c(=O)n(Cc3ccc(C)cc3)c2n1 (single isomer, unassigned) [Compound 36g-B, 6-Amino-2-(propylsulfonimidoyl)-9-(p-tolylmethyl)-7H-purin-8-one]

Reference: US20200268762A1, “7-SUBSTITUTED SULFONIMIDOYLPURINONE COMPOUNDS AND DERIVATIVES FOR THE TREATMENT AND PROPHYLAXIS OF LIVER CANCER” (Hoffmann-La Roche Inc., priority 2019, published 2020)
